Test results reported in patent US6713475B2, “Tricyclic benzodiazepines as vasopressin receptor antagonists” (Ortho-McNeil Pharmaceutical, Inc., priority 1999, dated 2004).

Key:
[1] = target: T1, human V-1 receptor (Homo sapiens, UniProt P37288); assay: In vitro recombinant vasopressin receptor binding assay (V1 Bdg), displacement of 3H-arginine vasopressin; conditions: for inhibition at 0.1 µM: read-out: V1 Bdg (% inh, 0.1 uM)
T1 construct: expressed in transfected cells; host or cells: HEK-293
Experimental: In vitro Recombinant Vasopressin Receptor Binding Assay
Compounds were assessed for their ability to displace ^3H-arginine vasopressin from the human V-1 or V-2 receptor in HEK-293 cells. Assay buffer is 50 mM Tris-Cl, 5 mM MgCl2, 0.1% BSA (pH 7.5) containing 5 ug/ml of aprotinin, leupeptin, pepstatin, 50 ug/ml bacitracin, and 1 mM Pefabloc. ^3H-vasopressin is ^3H-arginine-8-vasopressin (68.5 Ci/mmol, final concentration in assay is 0.65-0.75 nM). Into wells of 96-well round bottom polypropylene plates were added buffer, test compound, membrane (containing cloned human V-1 or V-2 receptor), and ^3H-vasopressin. The reaction plates were allowed to sit at room temperature for one hour. The samples were filtered through Unifilter GF/C plates (presoaked in 0.3 polyethyleneimine). The plates were washed 5 times with cold physiological saline containing 0.05% Tween 20. After drying, the bottom of the filter plates were sealed and 0.025 ml of Microscint-20 was added to each filter. The top of the plate was sealed, and the plate was counted. Non-specific binding was determined by the addition of 1.25 uM arginine-8-vasopressin in those wells.

[2] = target: V2 (Homo sapiens, UniProt P30518); assay: In vitro recombinant vasopressin receptor binding assay (V2 Bdg), displacement of 3H-arginine vasopressin; design: expressed in transfected cells; host or cells: HEK-293; conditions: for IC50: membrane with cloned human V-2 receptor (HEK-293); for V2 Bdg % inh: 0.1 uM, printed in parentheses in place of IC50
Procedure, shortened: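 Displacement of ³H-vasopressin from membranes of HEK-293 cells bearing cloned human V-2 receptor, incubated with test compound one hour at room temperature. Bound label was collected on PEI-soaked GF/C filters, washed with cold saline/0.05% Tween 20, and counted by scintillation.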

T1 sequence (P37288 whole entry): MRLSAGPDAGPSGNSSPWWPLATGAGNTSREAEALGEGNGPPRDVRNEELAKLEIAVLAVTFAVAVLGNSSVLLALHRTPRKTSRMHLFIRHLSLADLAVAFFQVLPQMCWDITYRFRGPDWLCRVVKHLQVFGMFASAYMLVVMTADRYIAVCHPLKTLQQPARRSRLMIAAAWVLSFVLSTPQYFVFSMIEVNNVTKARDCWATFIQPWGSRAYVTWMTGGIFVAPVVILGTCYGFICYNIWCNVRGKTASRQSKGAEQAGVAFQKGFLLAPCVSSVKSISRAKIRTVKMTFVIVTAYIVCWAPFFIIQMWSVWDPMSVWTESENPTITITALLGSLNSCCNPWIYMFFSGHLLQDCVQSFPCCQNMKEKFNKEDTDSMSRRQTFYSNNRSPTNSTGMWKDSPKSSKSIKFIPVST

What does the source list for `Cc1ccc(-c2ccccc2C(=O)Nc2ccc(C(=O)N3CC4COCCN4Cc4ccccc43)c(F)c2)cc1` (racemic) [Compound 30, (RS)-2-(4-Methyl-phenyl)-N-[3-fluoro-4-(1,3,4,12a-tetrahydro-6H-[1,4]oxazino[4,3-a][1,4]-benzodiazepin-11(12H)-yl-carbonyl)phenyl]benzamide]?
inhibition at 0.1 µM [1]: 74%; IC50 [2]: 14 nM

What does the source list for `Cc1cccc(C(=O)Nc2ccc(C(=O)N3CC4COCCN4Cc4ccccc43)c(Cl)c2)c1C` (racemic) [Compound 11, (RS)-2,3-Dimethyl-N-[3-chloro-4-(1,3,4,12a-tetrahydro-6H-[1,4]oxazino[4,3-a][1,4]-benzodiazepin-11(12H)-yl-carbonyl)phenyl]benzamide]?
inhibition at 0.1 µM [1]: 11%; IC50 [2]: 8 nM

How did the inhibition at 0.1 µM [1] turn out when `O=C(Nc1ccc(C(=O)N2C[C@H]3COCCN3Cc3ccccc32)c(Cl)c1)c1ccccc1-c1cccc(O)c1` [Compound 7, (S)-2-(3-Hydroxyphenyl)-N-[3-chloro-4-(1,3,4,12a-tetrahydro-6H-[1,4]oxazino[4,3-a][1,4]-benzodiazepin-11(12H)-yl-carbonyl)phenyl]benzamide] was run?
The inhibition at 0.1 µM was 1%.

And the IC50 [2]?
Its IC50 is 11 nM.

How did the inhibition at 0.1 µM [1] turn out when `O=C(Nc1ccc(C(=O)N2CC3CSCCN3Cc3cc(Cl)ccc32)cc1)c1ccccc1-c1ccccc1` (racemic) [Compound 37, (RS)-2-Phenyl-N-[4-(8-chloro-1,3,4,12a-tetrahydro-6H-[1,4]thiazino[4,3-a][1,4]-benzodiazepin-11(12H)-yl-carbonyl)phenyl]benzamide] was run?
The inhibition at 0.1 µM was 75%.

What about the IC50 [2] of the same compound?
The IC50 was 22 nM.

`CN1CCN2Cc3ccccc3N(C(=O)c3ccc(NC(=O)c4cc(F)c(F)c(F)c4F)cc3Cl)CC2C1` (racemic) [Compound 93, (RS)-2,3,4,5-Tetrafluoro-N-[3-chloro-4-(1,3,4,12a-tetrahydro-2-methyl-6H-(1,4]pyrazino[4,3-a][1,4]-benzodiazepin-11(12H)-yl-carbonyl)phenyl]benzamide] was tested. Which “V1 Bdg % inh” value ([1]; 1 uM) did it give?
The value was “(49%/1 uM)”.

And the “V2 Bdg % inh” value [2]?
Its value is “(24%/0.1 uM)”.

Which results are given for `Cc1c(F)cccc1C(=O)Nc1ccc(C(=O)N2CC3CN(C)CCN3Cc3ccccc32)c(Cl)c1` (racemic) [Compound 102, (RS)-2-Methyl-3-fluoro-N-[3-chloro-4-(1,3,4,12a-tetrahydro-2-methyl-6H-[1,4]pyrazino[4,3-a][1,4]-benzodiazepin-11(12H)-yl-carbonyl)phenyl]benzamide]?
V1 Bdg % inh ([1]; 1 uM): (12%/1 uM); V2 Bdg % inh [2]: (20%/0.1 uM)

What does the source list for `O=C(Nc1ccc(C(=O)N2CC3CN(CC(F)(F)F)CCN3Cc3ccccc32)c(Cl)c1)c1ccccc1-c1ccccc1` (racemic) [Compound 91, (RS)-2-Phenyl-N-[3-chloro-4-(1,3,4,12a-tetrahydro-2-(2,2,2-trifluoroethyl)-6H-[1,4]pyrazino[4,3-a][1,4]-benzodiazepin-11(12H)-yl-carbonyl)phenyl]benzamide]?
V1 Bdg % inh ([1]; 1 uM): (2%/1 uM); V2 Bdg % inh [2]: (31%/0.1 uM)

Which results are given for `O=C(Nc1ccc(C(=O)N2CC3COCCN3Cc3ccccc32)c(O)c1)c1ccccc1-c1ccccc1` (racemic) [Compound 23, (RS)-2-Phenyl-N-[3-hydroxy-4-(1,3,4,12a-tetrahydro-6H-[1,4]oxazino[4,3-a][1,4]-benzodiazepin-11(12H)-yl-carbonyl)phenyl]benzamide]?
inhibition at 0.1 µM [1]: 33%; IC50 [2]: 10 nM

Which inhibition at 0.1 µM [1] does the source give for `COc1cc(C(=O)N2CC3COCCN3Cc3ccccc32)ccc1NC(=O)c1ccccc1-c1ccccc1` (racemic) [Compound 15, (RS)-2-Phenyl-N-[2-methoxy-4-(1,3,4,12a-tetrahydro-6H-[1,4]oxazino[4,3-a][1,4]-benzodiazepin-11(12H)-yl-carbonyl)phenyl]benzamide] here?
The inhibition at 0.1 µM was 69%.

And the IC50 [2]?
The IC50 was 13 nM.

Which “V1 Bdg (% inh, 0.1 uM)” value [1] does the source give for “(RS)-2-Chloro-5-trifluoromethyl-N-[3-chloro-4-(1,3,4,12a-tetrahydro-6H-[1,4]oxazino[4,3-a][1,4]-benzodiazepin-11(12H)-yl-carbonyl)phenyl]benzamide [Compound 17]” here?
The value was 13%.

What about the “V2 Bdg % inh” value [2] of the same compound?
The value was “(63%/0.1 uM)”.

Which “V1 Bdg % inh” value ([1]; 1 uM) does the source give for `CN1CCN2Cc3ccccc3N(C(=O)c3ccc(NC(=O)c4cccc(Cl)c4Cl)cc3Cl)CC2C1` (racemic) [Compound 97, (RS)-2,3-Dichloro-N-[3-chloro-4-(1,3,4,12a-tetrahydro-2-methyl-6H-[1,4]pyrazino[4,3-a][1,4]-benzodiazepin-11(12H)-yl-carbonyl)phenyl]benzamide] here?
The value was “(21%/1 uM)”.

And the “V2 Bdg % inh” value [2]?
Its value is “(9%/0.1 uM)”.

For `COc1cc(NC(=O)c2ccccc2-c2ccccc2)ccc1C(=O)N1CC2CN(C)CCN2Cc2ccccc21` (racemic) [Compound 84, (RS)-2-Phenyl-N-[3-methoxy-4-(1,3,4,12a-tetrahydro-2-methyl-6H-[1,4]pyrazino[4,3-a][1,4]-benzodiazepin-11(12H)-yl-carbonyl)phenyl]benzamide], which “V1 Bdg % inh” value ([1]; 1 uM) is on record?
Its value is “(10%/1 uM)”.

And the “V2 Bdg % inh” value [2]?
Its value is “(36%/0.1 uM)”.

What does the source list for `O=C(Nc1ccc(C(=O)N2C[C@H]3COCCN3Cc3ccccc32)c(Cl)c1)c1ccccc1-c1ccc(O)cc1` [Compound 5, (S)-2-(4-Hydroxyphenyl)-N-[3-chloro-4-(1,3,4,12a-tetrahydro-6H-[1,4]oxazino[4,3-a][1,4]-benzodiazepin-11(12H)-yl-carbonyl)phenyl]benzamide]?
inhibition at 0.1 µM [1]: 29%; IC50 [2]: 9 nM

Which results are given for `Cc1cc(NC(=O)c2ccccc2-c2ccccc2)ccc1C(=O)N1CC2COCCN2Cc2ccccc21` (racemic) [Compound 29, (RS)-2-Phenyl-N-[3-methyl-4-(1,3,4,12a-tetrahydro-6H-[1,4]oxazino[4,3-a][1,4]-benzodiazepin-11(12H)-yl-carbonyl)phenyl]benzamide]?
inhibition at 0.1 µM [1]: 3%; IC50 [2]: 6 nM

For `CN1CCN2Cc3ccccc3N(C(=O)c3ccc(NC(=O)c4ccccc4-c4ccccc4)cc3F)CC2C1` (racemic) [Compound 70, (RS)-2-Phenyl-N-[3-fluoro-4-(1,3,4,12a-tetrahydro-2-methyl-6H-[1,4]pyrazino[4,3-a][1,4]-benzodiazepin-11(12H)-yl-carbonyl)phenyl]benzamide], which “V1 Bdg % inh” value ([1]; 1 uM) is on record?
Its value is “(9%/1 uM)”.

What about the “V2 Bdg % inh” value [2] of the same compound?
The value was “(44%/0.1 uM)”.

`Cc1csc(-c2cc(F)ccc2C(=O)Nc2ccc(C(=O)N3CC4COCCN4Cc4ccccc43)c(Cl)c2)c1` (racemic) [Compound 9, (RS)-2-(4-Methyl-2-thienyl)-4-fluoro-N-[3-chloro-4-(1,3,4,12a-tetrahydro-6H-[1,4]oxazino[4,3-a][1,4]-benzodiazepin-11(12H)-yl-carbonyl)phenyl]benzamide] was tested. Which inhibition at 0.1 µM [1] did it give?
The inhibition at 0.1 µM was 18%.

What about the IC50 [2] of the same compound?
Its IC50 is 11 nM.

What does the source list for “(RS)-3,5-Dichloro-N-[3-chloro-4-(1,3,4,12a-tetrahydro-6H-[1,4]thiazino[4,3-a][1,4]-benzodiazepin-11(12H)-yl-carbonyl)phenyl]benzamide [Compound 43]”?
V1 Bdg (% inh, 0.1 uM) [1]: 11%; V2 Bdg % inh [2]: (47%/0.1 uM)

Which “V1 Bdg % inh” value ([1]; 1 uM) does the source give for `CN1CCN2Cc3ccccc3N(C(=O)c3ccc(NC(=O)c4c(F)cccc4F)cc3Cl)CC2C1` (racemic) [Compound 99, (RS)-2,6-Difluoro-N-[3-chloro-4-(1,3,4,12a-tetrahydro-2-methyl-6H-[1,4]pyrazino[4,3-a][1,4]-benzodiazepin-11(12H)-yl-carbonyl)phenyl]benzamide] here?
The value was “(12%/1 uM)”.

What about the “V2 Bdg % inh” value [2] of the same compound?
The value was “(10%/0.1 uM)”.

`Cc1ccccc1C(=O)Nc1ccc(C(=O)N2CC3CN(C)CCN3Cc3ccccc32)cc1` (racemic) [Compound 86, (RS)-2-Methyl-N-[4-(1,3,4,12a-tetrahydro-2-methyl-6H-[1,4]pyrazino[4,3-a][1,4]-benzodiazepin-11(12H)-yl-carbonyl)phenyl]benzamide] was tested. Which “V1 Bdg % inh” value ([1]; 1 uM) did it give?
Its value is “(33%/1 uM)”.

And the “V2 Bdg % inh” value [2]?
Its value is “(1%/0.1 uM)”.

What does the source list for `Cc1ccccc1C(=O)Nc1ccc(C(=O)N2CC3COCCN3Cc3ccccc32)c(Cl)c1` (racemic) [Compound 24, (RS)-2-Methyl-N-[3-chloro-4-(1,3,4,12a-tetrahydro-6H-[1,4]oxazino[4,3-a][1,4]-benzodiazepin-11(12H)-yl-carbonyl)phenyl]benzamide]?
inhibition at 0.1 µM [1]: 34%; IC50 [2]: 16 nM

For `Cc1ccc(-c2ccccc2C(=O)Nc2ccc(C(=O)N3CC4CN(C)CCN4Cc4ccccc43)c(C(F)(F)F)c2)cc1` (racemic) [Compound 76, (RS)-2-(4-Methyl-phenyl)-N-[3-trifluoromethyl-4-(1,3,4,12a-tetrahydro-2-methyl-6H-[1,4]pyrazino[4,3-a][1,4]-benzodiazepin-11(12H)-yl-carbonyl)phenyl]benzamide], which “V1 Bdg % inh” value ([1]; 1 uM) is on record?
The value was “(18%/1 uM)”.

What about the “V2 Bdg % inh” value [2] of the same compound?
Its value is “(50%/0.1 uM)”.

Which results are given for `Cc1c(I)cccc1C(=O)Nc1ccc(C(=O)N2CC3CSCCN3Cc3ccccc32)c(Cl)c1` (racemic) [Compound 44, (RS)-2-Methyl-3-iodo-N-[3-chloro-4-(1,3,4,12a-tetrahydro-6H-[1,4]thiazino[4,3-a][1,4]-benzodiazepin-11(12H)-yl-carbonyl)phenyl]benzamide]?
V1 Bdg (% inh, 0.1 uM) [1]: 2%; V2 Bdg % inh [2]: (43%/0.1 uM)

With “(RS)-2-Phenyl-N-[4-(9-chloro-1,3,4,12a-tetrahydro-6H-[1,4]thiazino[4,3-a][1,4]-benzodiazepin-11(12H)-yl-carbonyl)phenyl]benzamide [Compound 34]” as the compound, how does the “V1 Bdg % inh” value ([1]; 10 uM) read?
Its value is 1%/10 uM.

What about the “V2 Bdg % inh” value [2] of the same compound?
Its value is “(41%/0.1 uM)”.
